Entries after “also recorded” stand apart in the source; their conditions may differ.
Experiments:
LC3 = assay: Autophagy assay, LC3 immunoblot in human fibroblasts (Fed/Hbss, with bafilomycin A1); type: cell-based; details: Hbss starvation, with BafA1
Method: (§1) 5 × 10^4 wild-type human fibroblasts were seeded in a 12-well plate and treated overnight with DMSO or different TRPML1 inhibitors (EDME, PRU-10, PRU-12). The day after, cells were treated for 3 h in full media (Fed) or HBSS supplemented with 10 mM HEPES (nutrient starved) in presence of DMSO or different TRPML1 inhibitors (EDME, PRU-10, PRU-12). For autophagic flux experiments, cells were co-treated with 100 nM of bafilomycin A1 (Sigma).
(§2) Total cell lysates were prepared using TRIS HCl 10 mM pH 8.0 and 0.2% SDS supplemented with protein and phosphatase inhibitors (Sigma). Protein concentration was determined using the Bradford method. After SDS–polyacrylamide gel electrophoresis (PAGE) and immunoblotting, the protein recognized by the specific antibody was visualized by chemiluminescence methods (Luminata Crescendo Western HRP substrate, Millipore) using HRP-conjugated anti-rabbit or anti-mouse secondary antibodies (Cell Signalling). Images were acquired using Li-Cor Odyssey Fc Imaging System and densitometric quantification of unsaturated images was performed using ImageJ software (NIH). Uncropped and unprocessed western blot scans are provided as Fig. S1. The following primary antibodies were used: LC3 (Novus Cat. No. NB100-2220, 1:1000 in 5% milk), TFEB (Cell Signaling Cat. No. 4240, 1:1000 in 5% BSA) and β-actin (Santa Cruz Cat. No. Sc-47778, 1: 1000 in 5% BSA).

human ERα = target: T1, human ERα (Homo sapiens, UniProt P03372); assay: Yeast estrogen receptor assay (YES-assay), Saccharomyces cerevisiae transfected with human ERα, lacZ reporter; type: cell-based; details: 0.01-100 µM, 48 h
T1 construct: host or cells: Saccharomyces cerevisiae
T1 sequence (P03372 whole entry): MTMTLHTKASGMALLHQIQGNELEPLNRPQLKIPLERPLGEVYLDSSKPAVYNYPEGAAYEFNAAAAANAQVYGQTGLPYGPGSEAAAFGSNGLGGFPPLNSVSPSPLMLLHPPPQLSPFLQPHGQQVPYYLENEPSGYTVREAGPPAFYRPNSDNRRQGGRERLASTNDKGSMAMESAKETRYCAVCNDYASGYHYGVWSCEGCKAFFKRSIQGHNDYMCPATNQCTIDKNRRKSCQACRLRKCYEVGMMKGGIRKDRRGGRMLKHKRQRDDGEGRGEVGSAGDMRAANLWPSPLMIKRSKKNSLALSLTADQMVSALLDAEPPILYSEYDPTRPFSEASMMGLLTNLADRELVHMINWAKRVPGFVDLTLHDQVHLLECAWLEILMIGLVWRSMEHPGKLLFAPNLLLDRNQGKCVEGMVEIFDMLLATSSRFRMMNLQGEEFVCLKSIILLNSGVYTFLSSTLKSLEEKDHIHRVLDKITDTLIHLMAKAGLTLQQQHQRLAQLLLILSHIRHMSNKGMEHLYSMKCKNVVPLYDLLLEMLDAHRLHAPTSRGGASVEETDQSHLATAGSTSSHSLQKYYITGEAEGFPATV
Method: The yeast estrogen receptor assay (YES-assay) was provided by Dr. J.P. Sumpter (Brunel University, Uxbridge, UK; Routledge & Sumpter, 1996) and was used to determine the relative transactivation activity of the human ERα in response to test substances as previously described. Briefly, Saccharomyces cerevisiae stably transfected with a human ERα construct and an estrogen responsive element fused to the reporter gene lacZ encoding for β-galactosidase were treated with the test substances for 48 h. The β-galactosidase enzymatic activity was measured in a colorimetric assay using the substrate chlorophenol red β-D-galactopyranoside (Roche Diagnostics, Mannheim Germany). Formation of chlorophenol red was measured at 540 nm. For the test, all compounds were diluted in DMSO. 17β-estradiol (10 nM; Sigma, Deisenhofen, Germany) served as positive control and DMSO was used as vehicle control. All compounds, were dose dependently tested in a concentration range of 0.01–100 µM, using technical quadruplicates and biological triplicates.

hTPC2L11A/L12A-RFP = target: T2, hTPC2L11A/L12A-RFP (Homo sapiens, UniProt Q8NHX9, L11A/L12A); assay: Single cell Fura-2 calcium imaging, HEK293 stably expressing hTPC2L11A/L12A-RFP; type: cell-based; details: compound alone or 10 µM after TPC2-A1-N (10 µM)
T2 construct: expressed in transfected cells
T2 sequence (Q8NHX9 whole entry L11A/L12A): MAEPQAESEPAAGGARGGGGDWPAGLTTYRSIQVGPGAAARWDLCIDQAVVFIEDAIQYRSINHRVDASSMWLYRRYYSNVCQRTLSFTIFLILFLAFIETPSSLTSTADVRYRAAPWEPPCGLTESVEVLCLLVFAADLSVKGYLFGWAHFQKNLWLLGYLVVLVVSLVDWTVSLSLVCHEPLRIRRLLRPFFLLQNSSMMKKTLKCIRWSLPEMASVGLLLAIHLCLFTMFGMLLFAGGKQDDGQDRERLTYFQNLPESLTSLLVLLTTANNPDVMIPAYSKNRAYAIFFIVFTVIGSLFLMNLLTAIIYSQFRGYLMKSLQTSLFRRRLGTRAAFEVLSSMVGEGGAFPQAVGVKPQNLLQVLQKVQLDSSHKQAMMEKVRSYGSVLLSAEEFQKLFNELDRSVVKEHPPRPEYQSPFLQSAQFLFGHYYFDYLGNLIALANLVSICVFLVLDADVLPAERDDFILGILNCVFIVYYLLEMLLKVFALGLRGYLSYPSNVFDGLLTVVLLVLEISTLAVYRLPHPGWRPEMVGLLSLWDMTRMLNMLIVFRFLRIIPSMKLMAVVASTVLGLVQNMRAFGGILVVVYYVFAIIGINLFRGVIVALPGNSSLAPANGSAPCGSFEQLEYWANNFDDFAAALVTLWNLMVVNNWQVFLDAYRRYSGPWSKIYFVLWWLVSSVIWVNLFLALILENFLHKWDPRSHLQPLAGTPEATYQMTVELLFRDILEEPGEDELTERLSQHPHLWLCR
Method: Single cell Ca^2+ imaging experiments were performed using Fura-2 as previously described. HEK293 cells stably expressing hTRPML1∆NC-YFP, hTRPML2-YFP, hTPPML3-YFP or hTPC2L11A/L12A-RFP (22, 24) were cultured at 37 °C with 5% of CO2 in Dulbecco’s modified Eagle medium (Thermo Fisher), supplemented with 10% fetal bovine serum, 100 U/mL penicillin, and 0.1 mg/mL streptomycin. Cells were plated onto poly-L-lysine (sigma)-coated glass coverslips and grown for 2–3 days. For Ca^2+ imaging experiments cells were loaded for 1 h at room temperature with Fura-2 AM (4.0 µM) and 0.005% (v/v) pluronic acid (both from Thermo Fisher) in HEPES-buffered solution (HBS) comprising 138 mM NaCl, 6 mM KCl, 2 mM MgCl2, 2 mM CaCl2, 10 mM HEPES, and 5.5 mM D-glucose (adjusted to pH 7.4 with NaOH). After loading, cells were washed with HBS and mounted in an imaging chamber. All recordings were performed in HBS. Ca^2+ imaging was performed using a Leica DMi8 live cell microscope. Fura-2 was excited at 340 nm/380 nm. Emitted fluorescence was captured using 515 nm long-pass filter. Compounds were pre diluted in DMSO and stored as 10 mM stock solutions at − 20 °C, not exceeding three months. Working solutions were prepared directly before using by dilution with HBS.

TFEB = TFEB shift / nuclear translocation upon nutrient starvation; type: cell-based, human; details: EDME 1 µM, Hbss
Method: as §1, §2

TRPML1 = target: T3, TRPML1 (Mus musculus, UniProt Q99J21); assay: Endolysosomal patch-clamp, murine alveolar macrophages endogenously expressing TRPML1; type: cell-based; details: EDME 10 µM, ML-SA1 10 µM
T3 construct: TRPML1 endogenously expressed in mouse alveolar macrophages; endogenous in cells; host or cells: primary murine alveolar macrophages
T3 sequence (Q99J21 whole entry): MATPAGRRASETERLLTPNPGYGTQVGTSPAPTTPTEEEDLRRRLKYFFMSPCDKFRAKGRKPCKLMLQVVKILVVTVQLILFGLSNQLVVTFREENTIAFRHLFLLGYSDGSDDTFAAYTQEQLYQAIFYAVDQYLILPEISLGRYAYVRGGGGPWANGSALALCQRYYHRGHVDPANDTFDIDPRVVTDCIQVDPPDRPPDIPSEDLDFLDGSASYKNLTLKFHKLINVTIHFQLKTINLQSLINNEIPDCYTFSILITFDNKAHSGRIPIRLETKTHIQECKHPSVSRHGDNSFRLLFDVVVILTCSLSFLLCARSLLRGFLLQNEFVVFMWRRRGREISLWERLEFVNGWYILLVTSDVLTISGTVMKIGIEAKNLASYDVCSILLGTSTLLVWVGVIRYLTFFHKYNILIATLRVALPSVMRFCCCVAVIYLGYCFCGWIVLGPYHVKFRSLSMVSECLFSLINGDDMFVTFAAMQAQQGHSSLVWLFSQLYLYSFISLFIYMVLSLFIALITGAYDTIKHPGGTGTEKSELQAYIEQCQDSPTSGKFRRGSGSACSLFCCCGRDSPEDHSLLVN
Method: For whole-LE/LY manual patch-clamp recordings, cells were treated with 1 μM vacuolin-1 (> 2 h) at 37 °C and 5% CO2 and experiments performed as described previously[19],[25]. Compound was washed out before patch-clamp experimentation. Currents were recorded using an EPC-10 patch-clamp amplifier (HEKA, Lambrecht, Germany) and PatchMaster acquisition software (https://www.heka.com/). Data were digitized at 40 kHz and filtered at 2.8 kHz. Fast and slow capacitive transients were cancelled by the compensation circuit of the EPC-10 amplifier. All recordings were obtained at room temperature and were analyzed using PatchMaster acquisition software (https://www.heka.com/) and OriginPro 6.1 (https://www.originlab.com/). […] For all experiments, salt-agar bridges were used to connect the reference Ag–AgCl wire to the bath solution to minimize voltage offsets. Liquid junction potential was corrected. For the application of the small molecule inhibitors/flavonoids, cytoplasmic solution was completely exchanged by cytoplasmic solution containing compound. The current amplitudes at − 100 mV were extracted from individual ramp current recordings. Unless otherwise stated, cytoplasmic solution contained 140 mM K-MSA, 5 mM KOH, 4 mM NaCl, 0.39 mM CaCl2, 1 mM EGTA and 10 mM HEPES (pH was adjusted with KOH to 7.2). […]

SMILES	concentration showing efficacy on autophagy (LC3) (LC3) [µM]	effect/efficacy at ERα (human ERα)	effect on hTPC2, Fura-2 (hTPC2L11A/L12A-RFP)	TFEB molecular downshift induced by nutrient starvation (TFEB)	inhibition of endogenous TRPML1 in alveolar macrophages (TRPML1)
C=Cc1ccc2c(c1)CC[C@@H]1[C@@H]2CC[C@]2(C)[C@@H](O)CC[C@@H]12 [PRU-10]	3	relatively low efficacy; also recorded: weakest effects	Neither an activating nor a blocking effect		
CC(=O)c1ccc2c(c1)CC[C@@H]1[C@@H]2CC[C@]2(C)[C@@H](O)CC[C@@H]12 [PRU-12]	1	relatively low efficacy; also recorded: weakest effects	Neither an activating nor a blocking effect		
COc1ccc2c(c1)CC[C@@H]1[C@@H]2CC[C@]2(C)[C@@H](O)CC[C@@H]12 [EDME, 17β-estradiol methyl ether]	1	comparably strong effects		reduced	inhibition of TRPML1 activation
